30 molecules from PubChem BioAssay (NCI) can be followed below.

Common to all, as to assay: NCI-60 cell line screen, 48 h
Test [1] concerns HCC-2998 colon.
For test [2], the system named is HCT-15 colon.
Test [3] has as its system HT29 colon.
Test [4] deals with SF-268 CNS.
For test [5], the system named is SK-OV-3 ovarian.
The subject of test [6] is SNB-75 CNS.
The subject of test [7] is SR leukemia.
Test [8] relates to TK-10 renal.
The subject of test [9] is UACC-257 melanoma.

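Exposure lasted 48 hours, with cells grown in 96-well plates and compounds tested at five concentrations. GI50 marks 50% less growth. TGI: concentration producing complete growth inhibition.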

`CCOC(=O)/C=C/CC(C)(C)CCOC(C)=O`: the TGI in [1], in test [2], in test [3], in test [4], in [5] and in test [6] was over 10 µM each time. The TGI in test [7], in test [8] and in test [9] was over 10 µM in each case.
As to `O=C(O)CCC(NC(=O)c1ccc(Nc2nc3ccccc3nc2-c2cccs2)cc1)C(=O)O` (centres undefined), the TGI in [1], in test [2], in test [3], in [4], in [5] and in test [6] was over 100 µM throughout. Moreover, the TGI in test [7], in test [8] and in test [9] was over 100 µM throughout.
Turning to `COC(=O)c1ccccc1NC(=O)C(=O)Cc1nc2c3c(ccc2[nH]c1=O)C(=O)c1ccccc1C3=O`, the TGI was 43 µM in test [1]; over 100 µM in test [2]; over 100 µM in test [3]; 67.9 µM in [4]; over 100 µM in [5]; over 100 µM in [6]. The TGI in test [8] came out at 96.4 µM; in test [9], 62.8 µM.
With `COC1/C=C/OC2(C)Oc3c(C)c(O)c4c(O)c(c(/C=N/Nc5ccc([N+](=O)[O-])cc5[N+](=O)[O-])c(O)c4c3C2=O)NC(=O)C(C)=C/C=C/C(C)C(O)C(C)C(O)C(C)C(OC(C)=O)C1C` (centres undefined), the GI50 is 5.05 µM in [1]; 5.86 µM in [2]; 1.59 µM in test [4]; 10.6 µM in test [5]; 1.8 µM in [6]; 1.48 µM in [9]. In addition, the TGI in test [1] was found to be 11.6 µM; in [2], 31.1 µM; in test [4], 11.4 µM; in test [5], 31.1 µM; in test [6], 10.3 µM; in test [9], 5.58 µM.
For `OCC1=CC(NC2CC(CO)C(O)C(O)C2O)C(O)C(O)C1O` (centres undefined), the TGI in test [2], in [3], in test [5], in test [6], in test [8] and in [9] was over 100 µM throughout.
In the case of `CCN(CC)CCSc1c2ccccc2nc2cc(NCC(=O)Nc3ccccc3-c3ccccc3NC(=O)CNc3ccc4c(SCCN(CC)CC)c5ccccc5nc4c3)ccc12`, the TGI in test [1], in test [2], in [3], in [4], in test [5] and in [6] was over 100 µM each time. The TGI in test [7], in [8] and in test [9] was over 100 µM throughout.
As to `O=C(CC(=O)c1cccc2ccccc12)C(=O)Nc1ccc(Cl)cc1`, the TGI in test [1], in test [2], in test [3], in test [4], in test [5] and in test [8] was over 100 µM in each case. In test [9], this molecule displayed a TGI of over 100 µM.
In the case of `Cc1ccc(Cl)c2c(N=Nc3ccccc3[N+](=O)[O-])c(O)[nH]c12`, the TGI in [1], in test [2], in test [3], in [4], in [5] and in test [6] was over 100 µM each time. Besides, the TGI in test [7], in [8] and in [9] was over 100 µM each time.
Turning to `CCOC(=O)CCC1(C(=O)OCC)CCCCC1=O` (centres undefined), the TGI in test [1], in [3], in [4], in test [5], in [6] and in test [8] was over 100 µM throughout. This molecule also registered a TGI in [9] of over 100 µM.
As for `Cc1ccc(S(=O)(=O)OC[C@@H]2CO2)cc1`, the TGI in test [1], in test [2], in test [3], in test [6], in [7] and in test [8] was over 100 µM in each case. This molecule had a TGI in test [9] of over 100 µM.
As to `COc1ccccc1N1C(=O)C2c3[nH]c4ccccc4c3C3CCC(C(C)(C)C)CC3C2C1=O` (centres undefined), the TGI in test [1], in [2], in [3], in test [4], in [5] and in [6] was over 100 µM in each case. Also, the TGI in [7] and in test [9] was over 100 µM throughout.
On to `CC1(C(=O)O)CCC[C@@]2(C)C1CC[C@@]1(C)c3cocc3CCC21` (some centres undefined), for which the TGI in [1], in [2], in test [3], in test [4], in test [5] and in test [6] was over 100 µM in each case. Further, the TGI in test [7], in test [8] and in [9] was over 100 µM in each case.
For the molecule `Cc1ccc([N+](=O)[O-])cc1NC1=NCCO1`, the TGI in test [1], in test [2], in test [3], in test [4], in test [5] and in test [6] was over 100 µM in each case. Besides, the TGI in test [7], in [8] and in [9] was over 100 µM throughout.
On to `Cc1c(C(=O)CC(=O)C(=O)Nc2ccccc2C(F)(F)F)[n+](=O)c2ccccc2n1[O-]`, for which the TGI in test [1] was 57.7 µM; in [2] it was 44.4 µM; in test [3] it was 57.2 µM; in test [4], 69 µM; in test [5] it was over 100 µM; in test [7] it was 26.6 µM. The TGI in [8] is over 100 µM; in [9], 36.2 µM.
With `CC(=O)[CH-]C(=O)c1ccccc1.CC(=O)[CH-]C(=O)c1ccccc1.CN(C)c1ccc([O-])cc1.CN(C)c1ccc([O-])cc1.Cl.[Ti+4]`, the GI50 in test [1] was 20.7 µM; in [2], 25.5 µM; in test [3], 18.1 µM; in [4], over 31.6 µM; in test [5] it was 17.1 µM; in [6] it was over 31.6 µM. In addition, the GI50 in test [8] is 71.6 µM; in test [9], over 31.6 µM. Besides, the TGI in test [1], in test [2], in test [3], in [4], in test [5] and in test [6] was over 31.6 µM throughout. Moreover, the TGI in [8] was over 100 µM; in test [9], over 31.6 µM.
`CN1CCN(C2=NCCO2)CC1`: the TGI in [1], in test [2], in test [3], in [4], in test [5] and in test [6] was over 100 µM throughout. Besides, the TGI in test [7], in [8] and in [9] was over 100 µM each time.
Consider `NC1=NCCC1(c1ccccc1)c1ccccn1` (centres undefined), for which the TGI in test [1], in [2], in [3], in [4], in [5] and in [6] was over 100 µM throughout. Further, the TGI in test [8] and in [9] was over 100 µM in each case.
Consider `Nc1ccccc1S(=O)(=O)N(CC(=O)O)c1ccccc1`, for which the TGI in test [2], in [3], in test [4], in test [5], in test [6] and in test [8] was over 100 µM throughout. In test [9], this molecule yielded a TGI of over 100 µM.
`CCC[CH2][Sn]([CH2]CCC)([S]c1cccc2cccnc12)[S]c1cccc2cccnc12`: the GI50 was 0.144 µM in test [1]; 0.176 µM in [2]; 0.138 µM in test [3]; 0.324 µM in [5]; 0.234 µM in test [6]; 0.249 µM in test [8]. Besides, the TGI in test [1] turned out to be 0.3 µM; in test [2] it was 0.411 µM; in [3] it was 0.335 µM; in test [5], 1.18 µM; in test [6] it was 0.926 µM; in [8], 0.552 µM.
With `C1=C2/CC[C@H](Sc3ccccc3)C2C2(CCCCC/1)OCCO2` (some centres undefined), the TGI in test [1] is 67.9 µM; in test [3] it was 28 µM; in test [4], over 100 µM; in test [6] it was 88.2 µM; in [7] it was over 100 µM; in test [8] it was over 100 µM. The TGI in [9] worked out at 45.2 µM.
As to `O=C(O)CCNCCCNCCC(=O)O`, the TGI in test [1], in test [2], in test [3], in test [4], in test [5] and in test [6] was over 100 µM throughout. Besides, the TGI in [8] is over 100 µM.
For the molecule `Cc1c(C(=O)C/C(=N/NC(=O)c2ccccc2O)C(=O)Nc2ccccc2C(C)C)[n+](=O)c2ccccc2n1[O-]`, the TGI in test [1], in [2], in test [3], in test [4], in [5] and in test [6] was over 100 µM each time. Also, the TGI in [8] and in test [9] was over 100 µM each time.
In the case of `COC(=O)/C(C#N)=C1\NC(=O)c2ccccc21`, the TGI in [1] is over 100 µM; in [2] it was over 100 µM; in [3], over 100 µM; in [4] it was over 100 µM; in test [5], over 100 µM; in test [6], 76.9 µM. Besides, the TGI in test [7], in test [8] and in [9] was over 100 µM in each case.
As for `CCCC1C(=O)CCc2c(OC)ccc(OC)c21` (centres undefined), the TGI in test [1], in test [2], in test [3], in test [4], in [5] and in test [6] was over 100 µM each time. The TGI in [8] and in test [9] was over 100 µM in each case.
For the molecule `COC(=O)C1(C(C)C)CCc2c(OC)ccc(OC)c2C1=O` (centres undefined), the TGI in test [1], in test [2], in [3], in test [4], in test [5] and in [8] was over 100 µM throughout. The TGI in test [9] was over 100 µM.
`Cc1cc(N(CCC#N)CCC#N)ccc1N=Nc1ccc(S(N)(=O)=O)cc1`: the TGI in [1], in test [2], in test [3], in [4], in test [5] and in test [6] was over 100 µM throughout. Further, the TGI in test [8] and in test [9] was over 100 µM in each case.
With `CCOC(=O)C(C)(C)Oc1ccc2c(-c3ccccc3)cc(=O)oc2c1`, the TGI in [1] is over 100 µM; in [2], over 100 µM; in test [4] it was over 100 µM; in test [6], 56.5 µM; in [7], 88.7 µM; in test [8], over 100 µM. Moreover, the TGI in test [9] worked out at 75.5 µM.
As to `O=C(CCc1nc(=S)[nH][nH]1)Nc1ccc(Cl)c(Cl)c1`, the TGI is 65.6 µM in test [2]; over 100 µM in test [3]; over 100 µM in test [4]; over 100 µM in [5]; 75.5 µM in test [6]; over 100 µM in test [7]. Moreover, the TGI in test [8] and in test [9] was over 100 µM each time.
Turning to `Cc1cc(NS(=O)(=O)c2ccc(Nc3c4ccccc4nc4c(C(=O)N5CCN(CCOS(C)(=O)=O)CC5)cccc34)cc2)no1`, the TGI in test [1], in test [2], in test [3], in test [4], in test [5] and in [6] was over 100 µM throughout. Further, the TGI in [8] and in test [9] was over 100 µM in each case.
With `Cc1nc2c(ccc3ncccc32)[nH]1`, the TGI in test [1], in [2], in test [3], in test [4], in test [5] and in test [6] was over 100 µM in each case. In addition, the TGI in [8] and in test [9] was over 100 µM each time.
